In the OligoGym collection one finds target mRNA inhibition data, which are given here for 83 sequences.

This series addresses HSD17B13. Particulars: ASO, HepaRG.

Where “and” joins values, the source holds several entries; their conditions need not be identical. Identical values can stand only once. After the bases stand the sugars from the 5' end (letter, count) and the backbone: PS all phosphorothioate, else s phosphorothioate and o phosphodiester by linkage. Methylation of C is not given here. e = 2'-O-(2-methoxyethyl) (MOE); k = constrained ethyl (cEt); d = 2'-deoxy (DNA); m = 2'-O-methyl

The sequence AGGGTCCACTTTTGGT (sugars k3 d10 k3, PS) gave a target mRNA inhibition (1 µM) of 11%.

Regarding CATAAGAGCCAAACTG (sugars k3 d10 k3, PS), the target mRNA inhibition (1 µM) was 27%.

AAGTTTTGGGACCAAT (sugars k3 d10 k3, PS) registered a target mRNA inhibition (1 µM) of 11%.

TAGGTAGCTAATGTAT (sugars k3 d10 k3, PS) gave a target mRNA inhibition (1 µM) of 34%.

Under “1 µM”, “TAGTCTTCAGCAAAGT (sugars k3 d1 m1 d8 k3, PS)” showed a target mRNA inhibition of 41%.

Sequence ATACGCATGCGCAGTG (sugars k3 d10 k3, PS) registered a target mRNA inhibition (1 µM) of 38%.

The sequence CGAATTATTTCTTGCG (sugars k3 d10 k3, PS) came in with a target mRNA inhibition (1 µM) of 58%.

Under “1 µM”, ATAGTTATCTTCTCAC (sugars k3 d10 k3, PS) gave a target mRNA inhibition of 48%.

CGTCCTAGGAAACAAA (sugars k3 d10 k3, PS) returned a target mRNA inhibition (1 µM) of 45%.

Sequence ATTTGCTGCATTAATG (sugars k3 d10 k3, PS) came in with a target mRNA inhibition (1 µM) of 20%.

For the setting “1 µM”, TAGAGAGCGATAGATC (sugars k3 d10 k3, PS) registered a target mRNA inhibition of 22%.

Consider ATTATTATGTGATTGA (sugars k3 d10 k3, PS), for which the target mRNA inhibition (1 µM) was determined as 39%.

With AACCTTTGTTGCCTGG (sugars k3 d10 k3, PS), for the setting “1 µM”, the target mRNA inhibition was 36%.

Sequence CAATGAGATTACCCCT (sugars k3 d10 k3, PS) came in with a target mRNA inhibition (1 µM) of 16%.

On to CGTAAATATTCTTGAG (sugars k3 d10 k3, PS), for which, where the note is “1 µM”, the target mRNA inhibition turned out to be 61%.

In turn, “AATTCACCTTGACTAA (sugars kkdddddddddkekek, PS)” gave a target mRNA inhibition (1 µM) of 9%.

Consider “TTGAGTTCTCCACTGC (sugars k3 d9 k3 e1, PS)”, for which the target mRNA inhibition (1 µM) is 26%.

In the case of TAGGAGTAGATGATGG (sugars k3 d10 k3, PS), the target mRNA inhibition (1 µM) came out at 15%.

The sequence TCATAAAAATCGCTGC (sugars k3 d10 k3, PS) gave a target mRNA inhibition (1 µM) of 26%.

For the setting “1 µM”, CAAGGAAAAGCCTGAC (sugars k3 d10 k3, PS) had a target mRNA inhibition of 59%.

With GTGCTGAGAAGATCGG (sugars k3 d10 k3, PS), the target mRNA inhibition (1 µM) worked out at 0%.

For ACTAATGAATCATGAT (sugars k3 d10 k3, PS), the target mRNA inhibition (1 µM) is 39%.

Sequence GATAATATGTGACTTG (sugars k3 d10 k3, PS) gave a target mRNA inhibition (1 µM) of 68%.

Under “1 µM”, AGCAGAATTGTGAACG (sugars k3 d10 k3, PS) returned a target mRNA inhibition of 67%.

As for GAGTAAACGACTCTGT (sugars k3 d10 k3, PS), the target mRNA inhibition (1 µM) was determined as 43%.

On to “GTCTTGATGTAGTGGG (sugars kkdddddddddkekek, PS)”, for which the target mRNA inhibition (1 µM) was determined as 18%.

Take AGGCTTATGAAGTTAG (sugars k3 d10 k3, PS): where the note is “1 µM”, the target mRNA inhibition came out at 57%.

As to ATCATACCACATACCC (sugars k3 d10 k3, PS), the target mRNA inhibition (1 µM) worked out at 45%.

In turn, “CCAGUACAGTTCCTTT (sugars k3 d1 m1 d8 k3, PS)” returned a target mRNA inhibition (1 µM) of 51%.

Regarding “CAGTCTTAAACCTTCC (sugars k3 d9 k3 e1, PS)”, the target mRNA inhibition is, setting by setting: (0.02 µM) 0%; (0.078 µM) 0%; (0.313 µM) 47%; (1 µM) 74% and 50%; (1.25 µM) 43%; (5 µM) 79%.

In turn, CCTGCTGAAACTTGAT (sugars k3 d10 k3, PS) gave a target mRNA inhibition (1 µM) of 19%.

As to “TGCTACTTGAACAGTC (sugars k3 d9 k3 e1, PS)”, the target mRNA inhibition (1 µM) amounted to 68%.

As for “CTACACTAATATTGAG (sugars kkdddddddddkekek, PS)”, the target mRNA inhibition (1 µM) worked out at 5%.

As for TTATTCACCACGATTG (sugars k3 d10 k3, PS), for the setting “1 µM”, the target mRNA inhibition came to 40%.

For the setting “1 µM”, GCTTTTGTGATCCAAA (sugars k3 d10 k3, PS) returned a target mRNA inhibition of 43%.

For the setting “1 µM”, TCTTACATGATTAAGC (sugars k3 d10 k3, PS) gave a target mRNA inhibition of 35%.

Sequence “AGAAUAGAGTTGCACC (sugars k3 d1 m1 d8 k3, PS)” displayed a target mRNA inhibition (1 µM) of 49%.

Where the note is “1 µM”, TAAGTATTCCATCTAT (sugars k3 d10 k3, PS) yielded a target mRNA inhibition of 31%.

Sequence “ATGGCTACAGATTGGA (sugars k3 d9 k3 e1, PS)” showed a target mRNA inhibition (1 µM) of 65%.

“TGCCAAACCAATGTTT (sugars k3 d9 k3 e1, PS)” showed a target mRNA inhibition (1 µM) of 43%.

On to AATATGTCCAGGTTGA (sugars k3 d10 k3, PS), for which, for the setting “1 µM”, the target mRNA inhibition was 64%.

Where the note is “1 µM”, TTATGTGATTGAGTTC (sugars k3 d10 k3, PS) yielded a target mRNA inhibition of 34%.

For the setting “1 µM”, “CAGGTTGAGATAAAGC (sugars kkdddddddddkekek, PS)” registered a target mRNA inhibition of 53%.

“GTAGCTTTTGTCCACC (sugars kkdddddddddkekek, PS)” registered a target mRNA inhibition (1 µM) of 34%.

Under “1 µM”, “CTTATTGGTAAGTATT (sugars k3 d9 k3 e1, PS)” showed a target mRNA inhibition of 24%.

On to ACAGTTCCTTTTCCTG (sugars k3 d10 k3, PS), for which the target mRNA inhibition (1 µM) is 58%.

In the case of CAGATTGGAATGCTAC (sugars k3 d10 k3, PS), the target mRNA inhibition is, setting by setting: (0.02 µM) 7%; (0.078 µM) 12%; (0.313 µM) 36%; (1 µM) 74%; (1.25 µM) 73%; (5 µM) 94%.

In turn, AAAATTATGCCTTGTG (sugars k3 d10 k3, PS) came in with a target mRNA inhibition (1 µM) of 50%.

GAAAAAGGTTATCATG (sugars k3 d10 k3, PS) registered a target mRNA inhibition (1 µM) of 31%.

The sequence TGAGCTAGACAATTGC (sugars k3 d10 k3, PS) gave a target mRNA inhibition (1 µM) of 78%.

Consider ATTCATAAGTAGTCTG (sugars k3 d10 k3, PS), for which the target mRNA inhibition (1 µM) amounted to 35%.

As to GACTTCTTACGACTTC (sugars k3 d10 k3, PS), the target mRNA inhibition (1 µM) amounted to 38%.

As for “TGCTAGTGCCAAACCA (sugars k3 d1 m1 d8 k3, PS)”, the target mRNA inhibition runs as follows: (0.02 µM) 7%; (0.078 µM) 29%; (0.313 µM) 46%; (1 µM) 80%; (1.25 µM) 67%; (5 µM) 90%.

GTATAGTATTCTTCAC (sugars k3 d10 k3, PS): the target mRNA inhibition by setting is: (0.02 µM) 15%; (0.078 µM) 4%; (0.313 µM) 29%; (1 µM) 81%; (1.25 µM) 61%; (5 µM) 86%.

GGTGGACTTCAGAGTT (sugars k3 d10 k3, PS): the target mRNA inhibition (1 µM) was 26%.

Where the note is “1 µM”, “CCTATATACATCCAAG (sugars kkdddddddddkekek, PS)” came in with a target mRNA inhibition of 61%.

With TATCAAAATGGTGGCG (sugars k3 d10 k3, PS), where the note is “1 µM”, the target mRNA inhibition was 18%.

Where the note is “1 µM”, TTGACTAAGGAGCTAG (sugars k3 d10 k3, PS) gave a target mRNA inhibition of 20%.

Take GGATTGCAGAAGAGTA (sugars k3 d10 k3, PS): the target mRNA inhibition worked out at 0% (0.02 µM); 13% (0.078 µM); 47% (0.313 µM); 76% (1 µM); 77% (1.25 µM); 74% (5 µM).

In turn, ATGCAGCTATAGGTAG (sugars k3 d10 k3, PS) yielded a target mRNA inhibition (1 µM) of 41%.

As for “TTCTGTGGCATGGCTA (sugars kkdddddddddkekek, PS)”, for the setting “1 µM”, the target mRNA inhibition worked out at 50%.

As to AACTCTAAATACCCTT (sugars k3 d10 k3, PS), under “1 µM”, the target mRNA inhibition was 28%.

For “TCTTAAGATACCCAGG (sugars k3 d1 m1 d8 k3, PS)”, the target mRNA inhibition (1 µM) is 51%.

As to ATATAACATGGCTGGC (sugars k3 d10 k3, PS), for the setting “1 µM”, the target mRNA inhibition amounted to 29%.

The sequence “GGCTACAGATTGGAAT (sugars k3 d1 m1 d8 k3, PS)” came in with a target mRNA inhibition (1 µM) of 40%.

Regarding “TGCACCGTTTTGGGCT (sugars kkdddddddddkekek, PS)”, where the note is “1 µM”, the target mRNA inhibition was determined as 29%.

As to TATTTCTTGCGAGAAA (sugars k3 d10 k3, PS), under “1 µM”, the target mRNA inhibition was found to be 30%.

The sequence CATTAGCAAGCTAAGA (sugars k3 d10 k3, PS) came in with a target mRNA inhibition (1 µM) of 0%.

Sequence “TAATACATTAGCAAGC (sugars k3 d1 m1 d8 k3, PS)” had a target mRNA inhibition (1 µM) of 26%.

TTTTCGGCACTCAGCT (sugars k3 d10 k3, PS) registered a target mRNA inhibition (1 µM) of 13%.

Sequence CTGTGTAAATAAGTTC (sugars k3 d10 k3, PS) returned a target mRNA inhibition (1 µM) of 38%.

Where the note is “1 µM”, “TATAGTTATCTTCTCA (sugars k3 d9 k3 e1, PS)” came in with a target mRNA inhibition of 59%.

Under “1 µM”, AATTGTCTAAACATCT (sugars k3 d10 k3, PS) yielded a target mRNA inhibition of 62%.

For GCTAAGTAGTAATTCT (sugars k3 d10 k3, PS), where the note is “1 µM”, the target mRNA inhibition stood at 57%.

Turning to TAGTAATTGCATCTGC (sugars k3 d10 k3, PS), the target mRNA inhibition (1 µM) amounted to 51%.

Sequence CTGTAAGAGTCAGTAT (sugars k3 d10 k3, PS) showed a target mRNA inhibition (1 µM) of 42%.

Sequence “TCTTATGTAATAGCCA (sugars k3 d9 k3 e1, PS)” gave a target mRNA inhibition (0.02 µM) of 15%; a target mRNA inhibition (0.078 µM) of 18%; a target mRNA inhibition (0.313 µM) of 25%; a target mRNA inhibition (1 µM) of 76%; a target mRNA inhibition (1.25 µM) of 65%; a target mRNA inhibition (5 µM) of 84%.

Under “1 µM”, GGATATACTGTCCCAG (sugars k3 d10 k3, PS) had a target mRNA inhibition of 9%.

In turn, “ATACATTAGCAAGCTA (sugars k3 d1 m1 d8 k3, PS)” displayed a target mRNA inhibition (1 µM) of 36%.

In the case of TCTTCATCCTTGGTGC (sugars k3 d10 k3, PS), for the setting “1 µM”, the target mRNA inhibition worked out at 48%.

“GTCTACCTCTAAGTTA (sugars k3 d1 m1 d8 k3, PS)” displayed a target mRNA inhibition (1 µM) of 15%.

On to “AACTTCATAGTGGACT (sugars kkdddddddddkekek, PS)”, for which, for the setting “1 µM”, the target mRNA inhibition stood at 68%.

For TTTCTTATGTAATAGC (sugars k3 d10 k3, PS), the target mRNA inhibition (1 µM) was 76%.
